Source: paper PMC10744608, “Simplified Synthesis of Renieramycin T Derivatives to Target Cancer Stem Cells via β-Catenin Proteasomal Degradation in Human Lung Cancer” (Marine Drugs, 2023)

Columns and labels:
Format in all cases: cell-based, human
A549 cells = experiment: MTT cell viability assay; conditions: Homo sapiens, A549, 24 h treatment
Experimental: (§1) The cell viability was assessed using an MTT assay, determining the half-maximal inhibitory concentration (IC50) to screen right-half RT analogs (DH_18, DH_21, DH_32, DH_35, DH_38, and DH_39). Human NSCLC cells (A549, H23, and H292) were seeded in a 96-well cell culture plate at a density of 1 × 10^4 cells per well and incubated for 24 h at 37 °C. Subsequently, the culture medium was aspirated, and a complete medium with varying concentrations (0–100 μM) of right-half RT analogs was added for 24 h. Following the removal of the compound-containing medium, an MTT reagent at a concentration of 4 mg/mL was applied and incubated for 3 h at 37 °C. The MTT reagent was replaced with 100 μL of DMSO to dissolve the formazan crystals. The measurement of the formazan product was conducted at 570 nm utilizing a microplate reader. RT served as the positive control in this experiment.

H23 cells = experiment: MTT cell viability assay; conditions: Homo sapiens, NCI-H23, H23, 24 h treatment
Experimental: as §1

H292 cells = experiment: MTT cell viability assay; conditions: Homo sapiens, NCI-H292, H292, 24 h treatment
Experimental: as §1

[1] = tested on: NSCLC cells (A549, H23, and H292); experiment: MTT cell viability assay, statements over all lung cancer lines; conditions: summary over A549, H23 and H292, 24 h
Experimental: as §1

[2] = tested on: CSC spheroids of A549, H23, and H292 cells; experiment: 3D CSC spheroid formation with immunofluorescence; conditions: 50 nM, 24 h, immunofluorescence
Experimental: A three-dimensional (3D) spheroid was employed to generate the spheroids containing CSC subpopulations from lung cancer cells. For CSC-rich population establishment, the spheroid culture assay used in this study was slightly modified from a previously described method. Lung cancer cells, specifically NSCLC cells (A549, H23, and H292), were seeded onto a 24-well ultra-low attachment plate, with approximately density of 2.5 × 10^3 cells per well in a medium with a 1% FBS and Nutristem mix. The primary spheroids were allowed to form for 7 days. Every 2 days, fresh medium with 1% FBS and Nutristem mix was replenished. On day 7 of primary spheroid culture, primary spheroids were resuspended into single cells using trypsin, and again 2.5 × 10^3 cells/well were seeded into a 24-well ultra-low attachment plate. Secondary spheroids were allowed to form for 10 days. After 10 days, the secondary spheroids were treated with 50 nM concentration DH_32 for 24 h treatment. The spheroids that had undergone treatment were retrieved through centrifugation at 1000× g for 30 s and then rinsed with PBS. The spheroids were fixed with 4% paraformaldehyde in a 50 μL PBS solution for 20 min at room temperature, and then they were made permeable by treating them with 0.1% Triton X in PBS for 5 min at room temperature. The spheroids were exposed to a mixture of 5% FBS and 2% BSA in PBS for 1 h at room temperature to prevent non-specific protein interactions. Subsequently, the spheroids were incubated with primary antibodies (CD133, CD44, and OCT4) at a 1:250 dilution in a 30 μL PBS solution containing 2.5% FBS and 1% BSA, and this incubation took place overnight at 4 °C. On the subsequent day, the spheroids were rinsed with PBS and then exposed to secondary antibodies (Alexa Fluor 594-conjugated goat anti-rabbit IgG (H+L) and Alexa Fluor 488-conjugated goat anti-mouse IgG (H+L)) at a 1:500 dilution in a 30 μL PBS solution containing 2.5% FBS and 1% BSA at room temperature for 1 h 30 min. These spheroids were subjected to staining with Hoechst 33342 (Sigma, St. Louis, MO, USA) at a concentration of 10 μg/mL for a duration of 15 min at room temperature. Subsequently, the fluorescence signals were observed using a fluorescence microscope (Olympus IX 51 with DP70; Olympus America Inc., Center Valley, PA, USA). The intensity of fluorescence was quantified using Image J software. NSCLC spheroids treated with RT at 50 nM and cisplatin at 50 nM served as the positive control.

SMILES	IC50 (A549 cells)	IC50 (H23 cells)	IC50 (H292 cells)	IC50 ([1]; Homo sapiens, 24 h)	IC50 [1]	levels of CD133, CD44, and OCT4 in CSC spheroids [2]
COC1=C(C)C(=O)C2=C(C1=O)[C@@H]1CN(Cc3ccccn3)[C@@H](C#N)[C@H](C2)N1C [DH_18, (1R,4R,5S)-9-methoxy-8,11-dimethyl-7,10-dioxo-3-(pyridin-2-ylmethyl)-1,2,3,4,5,6,7,10-octahydro-1,5-epiminobenzo[d]azocine-4-carbonitrile]	28 ± 0.86 µM	28.1 ± 0.83 µM	29.5 ± 0.75 µM	28 to 77 µM	~30 µM	–
COC1=C(C)C(=O)C2=C(C1=O)[C@@H]1CN(Cc3cccnc3)[C@@H](C#N)[C@H](C2)N1C [DH_21, (1R,4R,5S)-9-methoxy-8,11-dimethyl-7,10-dioxo-3-(pyridin-3-ylmethyl)-1,2,3,4,5,6,7,10-octahydro-1,5-epiminobenzo[d]azocine-4-carbonitrile]	51.4 ± 1.5 µM	49.4 ± 1.01 µM	54.1 ± 1.15 µM	28 to 77 µM	–	–
C#CCN1C[C@H]2C3=C(C[C@@H]([C@@H]1C#N)N2C)C(=O)C(C)=C(OC)C3=O [DH_35, (1R,4R,5S)-9-methoxy-8,11-dimethyl-7,10-dioxo-3-(prop-2-yn-1-yl)-1,2,3,4,5,6,7,10-octahydro-1,5-epiminobenzo[d]azocine-4-carbonitrile]	76.3 ± 2.98 µM	56 ± 1.78 µM	57.7 ± 1.45 µM	28 to 77 µM	–	–
COC1=C(C)C(=O)C2=C(C1=O)[C@@H]1CN(CCO)[C@@H](C#N)[C@H](C2)N1C [DH_38, (1R,4R,5S)-3-(2-hydroxyethyl)-9-methoxy-8,11-dimethyl-7,10-dioxo-1,2,3,4,5,6,7,10-octahydro-1,5-epiminobenzo[d]azocine-4-carbonitrile]	43.8 ± 1.43 µM	50.4 ± 1.18 µM	43.7 ± 0.86 µM	28 to 77 µM	–	–
COC1=C(C)C(=O)C2=C(C1=O)[C@@H]1CN(CCN3C(=O)c4ccccc4C3=O)[C@@H](C#N)[C@H](C2)N1C [DH_39, (1R,4R,5S)-3-(2-{1,3-dioxoisoindolin-2-yl}ethyl)-9-methoxy-8,11-dimethyl-7,10-dioxo-1,2,3,4,5,6,7,10-octahydro-1,5-epiminobenzo[d]azocine-4-carbonitrile]	70 ± 0.85 µM	73.3 ± 1.17 µM	65.4 ± 1.13 µM	28 to 77 µM	–	–
N.N.[Cl][Pt][Cl] [cisplatin, reference compound]	–	–	–	–	–	could not alter CSC markers
